Measured values from article PMC4423729 (Neuropharmacology, 2010).

Key:
Sprague-Dawley rats = conditions: rat, in vivo
BBB permeability [1] = assay: BBB permeability post ischemia; format: in vivo, rat; conditions: Evans blue, 12 animals/group
isolated aortic rings = assay: tPA induced vasodilation: phenylephrine contraction of isolated aortic rings; conditions: rtPA 1 nM, peptide 100 nM; EC50 of phenylephrine contraction; 3 experiments
rtPA = rtPA (Homo sapiens, UniProt P00750); assay: Plasminogen activator activity; format: biochemical; conditions: Glu-plasminogen 100 nM, Spectrazyme PL 500 μM, PBS, 37°C, A405, 3 experiments
[2] = for solubility in an aqueous environment: qualitative
BBB permeability [3] = assay: BBB permeability by extravasation of radiolabeled fibrinogen in rats; format: in vivo, rat; conditions: PAI-1 or peptide 1 mg/kg IV together with rtPA 1 mg/kg, 6 animals/group

Chain of rtPA (P00750 36-562): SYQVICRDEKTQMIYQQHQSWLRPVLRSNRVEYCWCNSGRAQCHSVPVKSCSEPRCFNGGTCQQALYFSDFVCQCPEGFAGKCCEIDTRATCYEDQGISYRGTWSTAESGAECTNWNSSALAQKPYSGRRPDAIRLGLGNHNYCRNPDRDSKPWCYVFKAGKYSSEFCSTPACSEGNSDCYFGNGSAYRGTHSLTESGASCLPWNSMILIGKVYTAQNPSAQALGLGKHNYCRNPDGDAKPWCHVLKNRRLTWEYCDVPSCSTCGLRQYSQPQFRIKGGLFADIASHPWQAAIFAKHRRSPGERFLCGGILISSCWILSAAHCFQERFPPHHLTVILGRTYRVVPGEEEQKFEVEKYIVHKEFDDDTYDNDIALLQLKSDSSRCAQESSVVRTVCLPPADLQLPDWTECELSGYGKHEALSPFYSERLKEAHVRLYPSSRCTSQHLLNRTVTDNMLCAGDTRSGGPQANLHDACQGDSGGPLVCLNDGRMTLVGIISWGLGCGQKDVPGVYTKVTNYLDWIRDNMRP

Compound: rtPA
- effect of rtPA on mortality (Sprague-Dawley rats): increased mortality
- effect of rtPA on neurological severity score (NSS) (Sprague-Dawley rats): aggravated the neurological disability
- mortality (Sprague-Dawley rats): 28.6±4.2%
- BBB permeability post tMCAO (BBB permeability [1]; rtPA three hours after the filament was withdrawn): re-opened the BBB

Compound: Ac-RMAPEEIIMDR-NH2 [11-aa]
- inhibition of rtPA-induced vasodilation (isolated aortic rings): inhibited vasodilation
- effect on the catalytic activity of rtPA (plasminogen activation) (rtPA): without affecting the catalytic activity of rtPA

Compound: CC[C@H](C)[C@H](NC(=O)[C@H](CCC(=O)O)NC(=O)[C@H](CCC(=O)O)NC(=O)[C@@H]1CCCN1C(=O)[C@H](C)NC(=O)[C@H](CCSC)NC(=O)[C@H](CCCNC(=N)N)NC(C)=O)C(=O)N[C@H](C(=O)N[C@@H](CCSC)C(=O)N[C@@H](CC(=O)O)C(=O)N[C@@H](CCCNC(=N)N)C(=O)N1CCC[C@H]1C(=O)N[C@@H](Cc1ccccc1)C(=O)N[C@@H](CC(C)C)C(=O)N[C@@H](Cc1ccccc1)C(=O)N[C@H](C(=O)N[C@H](C(=O)N[C@@H](CCCNC(=N)N)C(N)=O)C(C)C)C(C)C)[C@@H](C)CC [18-aa]
- inhibition of rtPA-induced vasodilation (isolated aortic rings): inhibited vasodilation
- maximal solubility ([2]; lyophilized peptide resuspended in 50% ethanol at 37°C, vortexed): 200 µg/mL
- solubility in an aqueous environment [2]: relatively insoluble
- effect on the catalytic activity of rtPA (plasminogen activation) (rtPA): without affecting the catalytic activity of rtPA
- effect on the catalytic activity of rtPA (plasminogen activation) (rtPA; listed as 18-aa- Phe^383): without inhibiting the catalytic activity of rtPA
- inhibition of rtPA-induced permeation of radiolabeled fibrinogen (BBB permeability [3]): inhibited

Compound: CC[C@H](C)[C@H](NC(=O)[C@H](CCC(=O)O)NC(=O)[C@H](CCC(=O)O)NC(=O)[C@@H]1CCCN1C(=O)[C@H](C)NC(=O)[C@H](CCSC)NC(=O)[C@H](CCCNC(=N)N)NC(C)=O)C(=O)N[C@H](C(=O)N[C@@H](CCSC)C(=O)N[C@@H](CC(=O)O)C(=O)N[C@@H](CCCNC(=N)N)C(=O)N1CCC[C@H]1C(=O)N[C@@H](Cc1ccccc1)C(=O)N[C@@H](CC(C)C)C(=O)N[C@@H](Cc1ccc(O)cc1)C(=O)N[C@H](C(=O)N[C@H](C(=O)N[C@@H](CCCNC(=N)N)C(N)=O)C(C)C)C(C)C)[C@@H](C)CC [18-aa-Tyr^383]
- inhibition of rtPA-induced vasodilation (isolated aortic rings): inhibited rtPA-induced vasodilation
- solubility in an aqueous environment [2]: more soluble in an aqueous environment than the original sequence
- effect on the catalytic activity of rtPA (plasminogen activation) (rtPA): without inhibiting the catalytic activity of rtPA
- inhibition of the late effect of rtPA on BBB permeability (BBB permeability [1]; peptide together with rtPA three hours after the filament was withdrawn): 96.7%
